Results on two compounds are retold here after patent US7196088B2, “Substituted tetrahydroisoquinolines and uses thereof” (Roche Palo Alto LLC, priority 2003, dated 2007).

The structures appear in SMILES notation. Structures can show the parent of a compound that is named as a salt.

Data set [1] has as its target recombinant human 5-HT6 receptor (Homo sapiens, UniProt P50406). Briefly: Radioligand binding studies: competition for [3H]LSD binding in membranes of HEK293 cells expressing the receptor.

Sequence of recombinant human 5-HT6 receptor (P50406 whole entry): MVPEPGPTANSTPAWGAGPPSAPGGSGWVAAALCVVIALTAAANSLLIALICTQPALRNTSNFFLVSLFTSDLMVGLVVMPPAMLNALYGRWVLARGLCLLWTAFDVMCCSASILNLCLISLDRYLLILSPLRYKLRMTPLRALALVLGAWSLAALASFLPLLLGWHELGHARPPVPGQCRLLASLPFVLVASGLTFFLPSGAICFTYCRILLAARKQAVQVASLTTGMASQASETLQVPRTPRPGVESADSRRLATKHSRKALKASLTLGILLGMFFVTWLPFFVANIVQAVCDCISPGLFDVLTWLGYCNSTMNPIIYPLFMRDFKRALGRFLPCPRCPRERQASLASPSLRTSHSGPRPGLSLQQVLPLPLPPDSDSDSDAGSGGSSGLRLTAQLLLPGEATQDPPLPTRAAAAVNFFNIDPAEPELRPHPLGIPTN

`O=S(=O)(c1ccccc1)N1CCc2c(cccc2N2CCNCC2)C1` (as salt: trifluoroacetic acid salt) displayed a melting point of 214 to 216 °C.

In the case of `O=S(=O)(c1cccc(Cl)c1Cl)N1CCc2c(cccc2N2CCNCC2)C1` [Compound 16, 2-(2,3-Dichloro-benzenesulfonyl)-5-pipe-razin-1-yl-1,2,3,4-tetra-hydroisoquinoline], in data set [1], the inhibitory constant (Ki) was 0.0427 nM.

The melting point is the temperature of the solid-liquid transition. Broadly, the Ki is the dissociation constant of the complex between target and ligand, obtained from inhibition or displacement.
